Values of other authors as cited in patent US20240108573A1, “NANOLIPID CARRIER BASED FORMULATION FOR BRAIN DELIVERY THROUGH INTRANASAL ROUTE AND ITS PREPARATION PROCESS” (AMRITA SCHOOL OF PHARMACY, AMRITA VISHWA VIDYAPEETHAM, priority 2022, published 2024).

biological half-life: 15-22 hrs
Structure (SMILES): O=C1NC(=O)C(c2ccccc2)(c2ccccc2)N1 [phenytoin sodium]
